From PubChem BioAssay AID330 (DTP/NCI, 2004) come the findings set out here.

The experiment concerns P388 leukemia ip, CD2F1 mice, survival T/C. Description: NCI In Vivo Anticancer Drug Screen. Data for tumor model P388 Leukemia (intraperitoneal) in CD2F1 (CDF1) mice. The settings on record: endpoint: median survival time, higher = longer survival. The procedure, abridged: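 Mice carrying the transplanted tumor received test compound or vehicle. Survival was recorded in each group, and the value is the treated-group measurement divided by that of the vehicle-treated control group.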

The mark [1] stands for this setting: dose: 50.0 mg/kg/injection, schedule: Q01DX005 (ip), vehicle: saline with Tween-80.
Setting [2] is: dose: 100.0 mg/kg/injection, schedule: Q01DX005 (ip), vehicle: saline with Tween-80.
Setting [3] is: dose: 200.0 mg/kg/injection, schedule: Q01DX005 (ip), vehicle: saline with Tween-80.
Setting [4] is: dose: 50.0 mg/kg/injection, schedule: Q01DX009 (ip), vehicle: Klucel (hydroxypropylcellulose) (HPC).
Where [5] appears, read: dose: 12.5 mg/kg/injection, schedule: Q01DX009 (ip), vehicle: saline with Tween-80.
The mark [6] stands for this setting: dose: 25.0 mg/kg/injection, schedule: Q01DX009 (ip), vehicle: saline with Tween-80.
[7] abbreviates: dose: 50.0 mg/kg/injection, schedule: Q01DX009 (ip), vehicle: saline with Tween-80.
[8] abbreviates: dose: 12.5 mg/kg/injection, schedule: Q01DX005 (ip), vehicle: saline with Tween-80.
Where [9] appears, read: dose: 60.0 mg/kg/injection, schedule: Q01DX005 (ip), vehicle: Klucel (hydroxypropylcellulose) (HPC).
Setting [10] is: dose: 120.0 mg/kg/injection, schedule: Q01DX005 (ip), vehicle: Klucel (hydroxypropylcellulose) (HPC).
[11] abbreviates: dose: 240.0 mg/kg/injection, schedule: Q01DX005 (ip), vehicle: Klucel (hydroxypropylcellulose) (HPC).
Where [12] appears, read: dose: 50.0 mg/kg/injection, schedule: Q01DX009 (ip), vehicle: saline.

“And” between values parts separate entries of the source, which are not always exact repeats. Identical values can stand only once. Toxic doses and inconclusive results are not listed.

As for `Oc1ccc2ccccc2c1/C=N/N=c1\[nH][nH]/c(=N\N=C\c2c(O)ccc3ccccc23)c2ccccc12`, the T/C runs as follows: under setting [1], 98 % of control; under setting [2], 97 % of control; under setting [3], 99 % of control.

In the case of `COc1ccc(/C=C(\C(C)=O)C(=O)CCN(C)C)cc1`, the T/C by setting is: (dose: 50.0 mg/kg/injection, schedule: Q01DX005 (ip), vehicle: saline) 95 % of control; (dose: 100.0 mg/kg/injection, schedule: Q01DX005 (ip), vehicle: saline) 105 % of control; (dose: 200.0 mg/kg/injection, schedule: Q01DX005 (ip), vehicle: saline) 115 % of control.

On to `CC1(C)OC(=O)C=C[C@]2(C)[C@H]3CC[C@@]4(C)[C@H](c5ccoc5)C[C@H]5O[C@]54[C@]3(C)C(=O)[C@H](O)[C@@H]12`, for which the T/C runs as follows: (dose: 1.25 mg/kg/injection, schedule: Q04DX003 (ip), vehicle: Klucel (hydroxypropylcellulose) (HPC)) 91 % of control; (dose: 2.5 mg/kg/injection, schedule: Q04DX003 (ip), vehicle: Klucel (hydroxypropylcellulose) (HPC)) 96 % of control; (dose: 5.0 mg/kg/injection, schedule: Q04DX003 (ip), vehicle: Klucel (hydroxypropylcellulose) (HPC)) 94 % of control; (dose: 10.0 mg/kg/injection, schedule: Q04DX003 (ip), vehicle: Klucel (hydroxypropylcellulose) (HPC)) 98 % of control.

With `CCCCCNC(=S)N/N=C(\C)c1ccccn1`, the T/C (dose: 12.5 mg/kg/injection, schedule: Q01DX009 (ip), vehicle: Klucel (hydroxypropylcellulose) (HPC)) is 107 % of control; the T/C (dose: 25.0 mg/kg/injection, schedule: Q01DX009 (ip), vehicle: Klucel (hydroxypropylcellulose) (HPC)) was 123 % of control; the T/C under setting [4] was 106 % of control.

In the case of `CC(Br)C(=O)c1ccc2cc(Br)c3ccccc3c2c1` (centres undefined), the T/C is 100 % of control under setting [5], 106 % of control under setting [6] and 116 % of control under setting [7].

`Cc1cc(N=Nc2ccc(O)cc2C(=O)O)c([N+](=O)[O-])cc1C`: the T/C is 101 % of control under setting [4]; 111 % of control (dose: 100.0 mg/kg/injection, schedule: Q01DX009 (ip), vehicle: Klucel (hydroxypropylcellulose) (HPC)); 104 % of control (dose: 200.0 mg/kg/injection, schedule: Q01DX009 (ip), vehicle: Klucel (hydroxypropylcellulose) (HPC)).

For `COc1cccc(/C(C#N)=N/NC(=O)c2nc[nH]c2C)c1`, the T/C (dose: 1.56 mg/kg/injection, schedule: Q01DX005 (ip), vehicle: saline with Tween-80) was 93 % of control; the T/C (dose: 3.12 mg/kg/injection, schedule: Q01DX005 (ip), vehicle: saline with Tween-80) is 94 % of control; the T/C (dose: 6.25 mg/kg/injection, schedule: Q01DX005 (ip), vehicle: saline with Tween-80) is 95 % of control; the T/C under setting [8] was 93 % of control; the T/C under setting [1] is 86 % of control; the T/C under setting [2] was 87 % of control. The T/C under setting [3] was 100 % of control.

`O=C(O)C(c1ccccc1)C1CCCCC1C1CCCCC1` (centres undefined): the T/C under setting [8] was 98 % of control; the T/C (dose: 25.0 mg/kg/injection, schedule: Q01DX005 (ip), vehicle: saline with Tween-80) was 95 % of control; the T/C under setting [1] is 100 % of control and 93 % of control.

Turning to `Nc1nc(N)nc(NC(=O)COc2cc(Cl)c(Cl)cc2Cl)n1`, the T/C is 95 % of control (dose: 100.0 mg/kg/injection, schedule: Q01DX009 (ip), vehicle: saline with Tween-80); 90 % of control (dose: 200.0 mg/kg/injection, schedule: Q01DX009 (ip), vehicle: saline with Tween-80); 100 % of control (dose: 400.0 mg/kg/injection, schedule: Q01DX009 (ip), vehicle: saline with Tween-80).

In the case of `COc1cc2c3c(c1OC)-c1[nH]c4ccccc4c1C1CCCN(CC2)C31` (centres undefined), the T/C was 95 % of control under setting [9], 96 % of control under setting [10] and 98 % of control under setting [11].

Consider `Cc1ccc2c(Nc3ccc(NS(C)(=O)=O)cc3)c3ccccc3nc2c1C`, for which the T/C is 110 % of control (dose: 0.59 mg/kg/injection, schedule: Q01DX009 (ip), vehicle: saline with Tween-80); 154 % of control (dose: 5.0 mg/kg/injection, schedule: Q01DX009 (ip), vehicle: other); 165 % of control (dose: 10.0 mg/kg/injection, schedule: Q01DX009 (ip), vehicle: other); 123 % of control (dose: 19.4 mg/kg/injection, schedule: Q04DX003 (ip), vehicle: water); 197 % of control (dose: 20.0 mg/kg/injection, schedule: Q01DX009 (ip), vehicle: other); 154 % of control (dose: 22.0 mg/kg/injection, schedule: Q04DX003 (ip), vehicle: saline with Tween-80). The T/C was 168 % of control (dose: 33.0 mg/kg/injection, schedule: Q04DX003 (ip), vehicle: saline with Tween-80); 195 % of control and 218 % of control (dose: 75.0 mg/kg/injection, schedule: Q04DX003 (ip), vehicle: saline with Tween-80); 155 % of control (dose: 90.0 mg/kg/injection, schedule: Q04DX003 (ip), vehicle: water); 254 % of control (dose: 150.0 mg/kg/injection, schedule: Q04DX003 (ip), vehicle: saline with Tween-80); 86 % of control (dose: 300.0 mg/kg/injection, schedule: Q04DX003 (ip), vehicle: saline with Tween-80).

As to `O=NNc1ccc([N+](=O)[O-])cn1`, the T/C (dose: 3.12 mg/kg/injection, schedule: Q01DX009 (ip), vehicle: water) is 107 % of control; the T/C (dose: 6.25 mg/kg/injection, schedule: Q01DX009 (ip), vehicle: saline) is 106 % of control and 96 % of control; the T/C (dose: 6.25 mg/kg/injection, schedule: Q01DX009 (ip), vehicle: water) is 96 % of control; the T/C (dose: 12.5 mg/kg/injection, schedule: Q01DX009 (ip), vehicle: saline) is 122 % of control and 123 % of control; the T/C (dose: 12.5 mg/kg/injection, schedule: Q01DX009 (ip), vehicle: water) is 102 % of control; the T/C (dose: 25.0 mg/kg/injection, schedule: Q01DX009 (ip), vehicle: water) was 105 % of control and 88 % of control. Under setting [12], the T/C was 176 % of control.

With `CC(=O)OC1CC2CCCCC2CC1[N+](C)(C)C` (centres undefined), the T/C by setting is: under setting [5], 108 % of control; under setting [6], 112 % of control; under setting [7], 103 % of control and 94 % of control; under setting [12], 105 % of control.

Take `CCOc1c(N=Nc2ccc(Br)cc2)c(C)nn1C(=S)SC`: the T/C is 93 % of control under setting [9], 92 % of control under setting [10] and 98 % of control under setting [11].

`CCN(CC)Cc1cc(Nc2c3ccccc3nc3cc(Cl)ccc23)ccc1O`: the T/C (dose: 33.0 mg/kg/injection, schedule: Q01DX009 (ip), vehicle: saline) is 100 % of control; the T/C under setting [12] was 109 % of control; the T/C (dose: 75.0 mg/kg/injection, schedule: Q01DX009 (ip), vehicle: saline) is 122 % of control.

`CCn1cc(C(=O)O)c(=O)c2ccc(-c3cn[nH]c3C)nc21`: the T/C is, setting by setting: (dose: 50.0 mg/kg/injection, schedule: Q04DX003 (ip), vehicle: suspension in saline) 106 % of control; (dose: 100.0 mg/kg/injection, schedule: Q04DX003 (ip), vehicle: suspension in saline) 107 % of control; (dose: 200.0 mg/kg/injection, schedule: Q04DX003 (ip), vehicle: suspension in saline) 106 % of control.

Consider `Cc1nc(C(=O)OCc2ccccc2)cc(OCc2ccccc2)c1C`, for which the T/C reads like this: (dose: 12.5 mg/kg/injection, schedule: Q01DX009 (ip), vehicle: distilled water + Tween-80) 101 % of control; (dose: 25.0 mg/kg/injection, schedule: Q01DX009 (ip), vehicle: distilled water + Tween-80) 90 % of control; (dose: 50.0 mg/kg/injection, schedule: Q01DX009 (ip), vehicle: distilled water + Tween-80) 95 % of control; (dose: 100.0 mg/kg/injection, schedule: Q01DX009 (ip), vehicle: distilled water + Tween-80) 90 % of control; (dose: 200.0 mg/kg/injection, schedule: Q01DX009 (ip), vehicle: distilled water + Tween-80) 93 % of control.

On to `COC(=O)CCC(NC(=O)C(CCCCN)N(C(=O)OCc1ccccc1)C(=O)OCc1ccccc1)C(=O)OC` (centres undefined), for which the T/C was 101 % of control under setting [1], 101 % of control under setting [2] and 98 % of control under setting [3].
